In brackets after ≈: the same amount, converted by molar mass.
Assay: In vitro reduction in viability of KB cells by modified crystal violet assay.
Type: functional, cell-based
Settings: Homo sapiens

Row | Compound | IC50 [µg/mL]
1 | CS(=O)(=O)OCC1CN(S(C)(=O)=O)c2cc(O)c(Br)cc21 (configuration not stated) | 0.308 (≈ 0.769 µM)
2 | CS(=O)(=O)OCC1CN(S(C)(=O)=O)c2cc(OCc3ccccc3)ccc21 (configuration not stated) | 4.39 (≈ 10.7 µM)
3 | CS(=O)(=O)N1CC(CCl)c2cc(Br)c(OCc3ccccc3)cc21 (configuration not stated) | 6.18 (≈ 14.3 µM)
4 | CS(=O)(=O)N1CC(CCl)c2cc(C=O)c(OCc3ccccc3)cc21 (configuration not stated) | 3.24 (≈ 8.53 µM)
5 | CS(=O)(=O)OCC1CN(S(C)(=O)=O)c2cc(O)ccc21 (configuration not stated) | 3.69 (≈ 11.5 µM)
6 | COC(=O)c1cc2c(cc1O)N(S(C)(=O)=O)CC2CCl (configuration not stated) | 8.38 (≈ 26.2 µM)
7 | COC(=O)c1cc2c(cc1OCc1ccccc1)N(S(C)(=O)=O)CC2CCl (configuration not stated) | 7.14 (≈ 17.4 µM)
8 | COc1cccc2c1C(=O)c1c(O)c3c(c(O)c1C2=O)C[C@@](O)(C(=O)CO)C[C@@H]3O[C@H]1C[C@H](N)[C@H](O)[C@H](C)O1 [DOXORUBICIN] | 0.02 (≈ 0.0368 µM)
9 | CS(=O)(=O)OCC1CN(S(C)(=O)=O)c2cc(OCc3ccccc3)c(Br)cc21 (configuration not stated) | 5.21 (≈ 10.6 µM)
10 | CS(=O)(=O)N1CC2CC23C=CC(=O)C=C13 (configuration not stated) | 8.64 (≈ 38.4 µM)
11 | CS(=O)(=O)N1CC(CCl)c2ccc(OCc3ccccc3)cc21 (configuration not stated) | 6.32 (≈ 18 µM)
12 | CS(=O)(=O)N1CC(CCl)c2cc([N+](=O)[O-])c(O)cc21 (configuration not stated) | 8.85 (≈ 28.9 µM)
13 | CS(=O)(=O)OCC1CN(S(C)(=O)=O)c2cc(OCc3ccccc3)c([N+](=O)[O-])cc21 (configuration not stated) | 7.91 (≈ 17.3 µM)
14 | CS(=O)(=O)OCC1CN(S(C)(=O)=O)c2cc(O)c([N+](=O)[O-])cc21 (configuration not stated) | 0.764 (≈ 2.09 µM)
15 | CS(=O)(=O)N1CC(CCl)c2cc(Br)c(O)cc21 (configuration not stated) | 3.8 (≈ 11.2 µM)
16 | CS(=O)(=O)N1CC(CCl)c2ccc(O)cc21 (configuration not stated) | 4.24 (≈ 16.2 µM)
17 | CS(=O)(=O)N1CC(CCl)c2cc(C=O)c(O)cc21 (configuration not stated) | 4.83 (≈ 16.7 µM)

— ChEMBL document CHEMBL1126567, “CC-1065 functional analogues possessing different electron-withdrawing substituents and leaving groups: synthesis, kinetics, and sequence specificity of reaction with DNA and biological evaluation” (J Med Chem, 1993)
